Data on one compound can be found in paper PMC13095408, “DBeQ derivative targets vacuolar protein sorting 4 functions in cancer cells and suppresses tumor growth in mice” (The Journal of Pharmacology and Experimental Therapeutics, 2025).

The structures appear in SMILES notation.

Series [1] addresses T1, VPS4B (Homo sapiens, UniProt O75351).
T1 sequence (O75351 1-444): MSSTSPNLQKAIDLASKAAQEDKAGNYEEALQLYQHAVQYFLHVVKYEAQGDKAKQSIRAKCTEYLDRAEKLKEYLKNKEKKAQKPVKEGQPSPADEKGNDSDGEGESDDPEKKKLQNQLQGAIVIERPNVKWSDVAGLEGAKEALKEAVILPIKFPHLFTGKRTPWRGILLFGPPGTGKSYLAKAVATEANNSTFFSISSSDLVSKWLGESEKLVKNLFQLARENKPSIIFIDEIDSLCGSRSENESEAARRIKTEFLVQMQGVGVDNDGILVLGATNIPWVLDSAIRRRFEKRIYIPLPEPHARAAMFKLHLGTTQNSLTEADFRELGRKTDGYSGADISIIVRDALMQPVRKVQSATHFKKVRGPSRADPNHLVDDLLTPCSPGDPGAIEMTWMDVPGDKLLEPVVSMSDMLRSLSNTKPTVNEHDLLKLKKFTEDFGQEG
The series is described as follows: VPS4B ATPase activity, EnzChek Phosphate assay. Format: biochemical. Further details: His tag (pET28a vector-encoded) (N); made in house; host or cells: Escherichia coli BL21(DE3). The gist of the method:
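EnzChek phosphate release (MESG/PNP, 360 nm) with ATPases at 1 μM (diluted stock) in HEPES pH 7.4 buffers with MgCl2, CaCl2, DTT, BSA, Triton; 30 min compound preincubation at RT, started with MgATP, read 20 min at 37 °C. Activity from 5-min linear initial rate, normalized to DMSO; IC50 from Hill slope −1 fit.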

Series [2] deals with U2OS cells. The experiment in a line: Immunoblot analysis of VPS4- and VCP-mediated pathways (autophagy, ER stress, ERAD). Format: cell-based. The protocol: Whole-cell lysates were prepared in radio-immunoprecipitation buffer (25 mM Tris-HCl, pH 8.0, 150 mM NaCl, 1 mM EDTA, 1% v/v IGEPAL CA-630, 0.5% w/v sodium deoxycholate, and 1% v/v SDS) containing protease (1:250) and phosphatase inhibitor cocktails (1:100) then resolved via SDS-PAGE and probed with the indicated antibodies. Signals were acquired with the Odyssey CLx (LI-COR) for fluorescence or Odyssey XF (LI-COR) for chemiluminescence detection and visualized in Image Studio version 6 (LI-COR).
VPS4 is essential for autophagy and loss of VPS4 function inhibits autophagic flux ([Takahashi et al, 2018]; [Zhen et al, 2019]). Meanwhile, VCP is required for endoplasmic reticulum-associated degradation (ERAD; [Rabinovich et al, 2002]) where VCP inhibition results in the accumulation of ubiquitinated proteins and induction of ER stress ([Weihl et al, 2006]; [Bastola et al, 2016]).
For orientation: In western blotting, separated proteins are transferred to a membrane and probed.

Series [3] can be described thus: Human liver microsomal stability. It counts as in vitro ADME. To be noted: Human liver microsomes, 1 μM of compound. The protocol: All in vitro absorption, distribution, metabolism, and excretion (ADME) studies were conducted by BioDuro-Sundia. […] Caco-2 permeability, human liver microsomal stability, and human plasma protein binding assays as well as liquid chromatography-mass spectrometry/mass spectrometry analyses were performed following standard protocols previously described in detail ([Kazakova et al, 2023]).
For orientation: Microsomes from liver hold many membrane-bound enzymes, among them those of drug oxidation.

Where [4] appears, read: 5 μM DBeQ, 0.6 μM CB-5083, 1 μM 4-107, complete media.

The IC50 is the point on the concentration scale where inhibition reaches its midpoint. Take `COc1cccc2c(NCc3ccccc3)nc(NCc3ccccc3)nc12` [Compound 4-107, N^2,N^4-dibenzyl-8-methoxyquinazoline-2,4-diamine]: in series [1] (0.5 μM enzyme), the IC50 was 3.7 ± 0.1 µM. For the same compound, the “VPS4B ATPase (% DMSO)” value in series [1] (remaining ATPase activity, screened at 5 μM, mean ± SD, Table 1, listed as 1) came out at 36.67 ± 1.73 % DMSO. Also, the “VPS4B ATPase (% DMSO)” value in series [1] (screened at 5 µM, mean ± S.D., Supplemental Table 2) was 36.67 ± 1.73 % DMSO. The “accumulation of K48-linked polyubiquitinated proteins” value in series [2] (0.6 μM CB-5083, 1 μM 4-107, complete media) is “did not induce ER stress or the accumulation of polyubiquitinated proteins”. Further, the “VCP pathway (ubiquitinated proteins, ATF4, SQSTM1)” value in series [2] (5 μM 4-107, 4 hours, complete media) is reported as “VCP pathway perturbation”. In series [2] (setting [4]), the “ER stress (HSPA5, ATF4)” value is “did not induce ER stress” and the “autophagy (SQSTM1, LC3-II)” value is reported as “inhibited autophagy over time”. In series [3], the “Liver microsomal stability, remaining after 1 h” value is reported as 71.83%. Moreover, the microsomal CLint at 1 μM in series [3] (read-out: In vitro intrinsic clearance, Clint) worked out at 11.8 µL/min/mg. Also, the half-life at 1 μM in series [3] (read-out: Liver microsomal stability, T1/2) turned out to be 1.95 h.
